According to patent US5034212A, “Method of imaging using a radioactive glucosamine derivative” (Nihon Medi-Physics Co., Ltd., priority 1989, dated 1991):

Experiments:
[1] = Octanol/phosphate buffer distribution ratio (lipophilic property); type: physicochemical
Method: To a mixture of octanol (3 ml) and phosphate buffer (PBS) (3 ml), ^125 I-ABGA as obtained in Example 2 was added, followed by stirring and allowing to stand. The radioactivity of each layer was measured, and the distribution ratio was determined. The results are shown in Table 1, from which it is understood that ^125 I-ABGA is lypophilic.

[2] = Stability in buffer of pH 5, 7 or 9 at 37° C., TLC analysis; type: physicochemical
Method: A solution of ^125 I-ABGA in dimethylsulfoxide was added to a buffer of pH 5, 7 or 9 and incubated at 37° C. for a certain period of time.

Swine liver esterase = test: Enzymatic deesterification with swine liver esterase, TLC analysis; type: in vitro ADME; details: pH 7.4, 37° C.; for Proportion of peak component ABGA / Proportion of peak component BGA / Proportion of peak component I^- / Proportion of peak component Others: esterase 100 U
Method: Swine liver esterase (100 U) was added to phosphate buffer (pH 7.4), and ^125 I-ABGA (50 kBq) was added thereto, followed by incubation at 37° C. for a certain period of time. The reaction mixture was sampled, and ethanol was added thereto, followed by centrifugation.

[3] = Body distribution of ^125 I-ABGA in mouse; type: in vivo, ddY strain male mice; details: i.v.
[4] = Body distribution of BGA in mouse; type: in vivo
hexokinase = test: Phosphorylation with hexokinase / inhibition of glucose phosphorylation; type: biochemical
brain = test: Behavior in mouse: TLC of brain and blood homogenates after tail vein injection; type: in vivo, ddY strain male mice
Method: ^125 I-ABGA was injected into ddY strain male mice at the tail vein, and after a certain period of time, the mice were sacrificed. The blood was collected from the heart, and the brain was taken out. The blood and the brain were respectively admixed with 5% trichloroacetic acid (1 ml), homogenized and centrifuged at 3,000 rpm and at 0° C. for 10 minutes. The supernatant was analyzed by thin layer chromatography using a mixture of chloroform and methanol (7:3 by volume) as a developing solvent. The results are shown in FIGS. 1A and 1B of the accompanying drawings. In FIGS. 1A and 1B showing respectively the analytical results on the brain homogenate and the blood homogenate, the solid line, the dotted line and the solid-dot mixed line represent respectively the ones of 5 minutes, 60 minutes and 180 minutes after the administration.

CC(=O)OC[C@H]1OC(OC(C)=O)[C@H](NC(=O)c2cccc([125I])c2)[C@@H](OC(C)=O)[C@@H]1OC(C)=O (stereo partly drawn) [^125 I-ABGA, ^125 I-labeled N-(m-iodobenzoyl)-1,3,4,6-tetra-O-acetyl-D-glucosamine]
Lipophilic property ([1]; octanol/PBS): lypophilic | Distribution ratio in PBS and octanol ([1]; pH 7.0): 189.0 | Distribution ratio in PBS and octanol ([1]; pH 7.4): 193.8 | Distribution ratio in PBS and octanol ([1]; pH 8.10): 206.5 | Stability: peak component ABGA ([2]; 15 min, pH 5, 37° C.): 99.1 | Stability: peak component I^- ([2]; 15 min, pH 5, 37° C.): 0 | Stability: peak component Others ([2]; 15 min, pH 5, 37° C.): 0 | Stability: peak component ABGA ([2]; 15 min, pH 7, 37° C.): 99.9 | Stability: peak component I^- ([2]; 15 min, pH 7, 37° C.): 0 | Stability: peak component Others ([2]; 15 min, pH 7, 37° C.): 0 | Stability: peak component ABGA ([2]; 15 min, pH 9, 37° C.): 53.9 | Stability: peak component I^- ([2]; 15 min, pH 9, 37° C.): 10.2 | Stability: peak component Others ([2]; 15 min, pH 9, 37° C.): 31.5 | Stability: peak component ABGA ([2]; 60 min, pH 5, 37° C.): 98.5 | Stability: peak component I^- ([2]; 60 min, pH 5, 37° C.): 0 | Stability: peak component Others ([2]; 60 min, pH 5, 37° C.): 0 | Stability: peak component ABGA ([2]; 60 min, pH 7, 37° C.): 99.3 | Stability: peak component I^- ([2]; 60 min, pH 7, 37° C.): 0 | Stability: peak component Others ([2]; 60 min, pH 7, 37° C.): 0 | Stability: peak component ABGA ([2]; 60 min, pH 9, 37° C.): 25.5 | Stability: peak component I^- ([2]; 60 min, pH 9, 37° C.): 19.6 | Stability: peak component Others ([2]; 60 min, pH 9, 37° C.): 49.0 | Stability: peak component ABGA ([2]; 180 min, pH 5, 37° C.): 98.4 | Stability: peak component I^- ([2]; 180 min, pH 5, 37° C.): 0 | Stability: peak component Others ([2]; 180 min, pH 5, 37° C.): 0 | Stability: peak component ABGA ([2]; 180 min, pH 7, 37° C.): 97.8 | Stability: peak component I^- ([2]; 180 min, pH 7, 37° C.): 0.9 | Stability: peak component Others ([2]; 180 min, pH 7, 37° C.): 0 | Stability: peak component ABGA ([2]; 180 min, pH 9, 37° C.): 2.2 | Stability: peak component I^- ([2]; 180 min, pH 9, 37° C.): 31.1 | Stability: peak component Others ([2]; 180 min, pH 9, 37° C.): 57.5 | Stability at high pH ([2]; high pH (pH 9), 37° C.): hydrolyzed to BGA with deiodization at high pH | Stability at other pH ([2]; pH 5 and 7, 37° C., up to 3 hours): stable (i.e. neither hydrolyzed nor deiodized) even after 3 hours at other pH | Proportion of peak component ABGA (Swine liver esterase; 10 min): 0 | Proportion of peak component BGA (Swine liver esterase; 10 min): 87.3 ± 3.1 | Proportion of peak component I^- (Swine liver esterase; 10 min): 0.9 ± 0.5 | Proportion of peak component Others (Swine liver esterase; 10 min): 10.6 ± 2.9 | Proportion of peak component ABGA (Swine liver esterase; 60 min): 0 | Proportion of peak component BGA (Swine liver esterase; 60 min): 54.5 ± 3.7 | Proportion of peak component I^- (Swine liver esterase; 60 min): 6.5 ± 0.5 | Proportion of peak component Others (Swine liver esterase; 60 min): 33.7 ± 2.4 | Proportion of peak component ABGA (Swine liver esterase; 180 min): 0 | Proportion of peak component BGA (Swine liver esterase; 180 min): 7.2 ± 2.2 | Proportion of peak component I^- (Swine liver esterase; 180 min): 33.4 ± 1.6 | Proportion of peak component Others (Swine liver esterase; 180 min): 42.9 ± 0.4 | Enzymatic deesterification (Swine liver esterase; swine liver esterase): deesterified in a very short time to give N-m-iodobenzoyl-D-glucosamine (BGA) | Body distribution, Blood ([3]; 2 min): 5.16 ± 0.97 % dose/g organ | Body distribution, Brain ([3]; 2 min): 0.53 ± 0.14 % dose/g organ | Body distribution, Heart ([3]; 2 min): 4.88 ± 0.97 % dose/g organ | Body distribution, Intestine ([3]; 2 min): 3.94 ± 1.19 % dose/g organ | Body distribution, Kidney ([3]; 2 min): 14.87 ± 2.31 % dose/g organ | Body distribution, Liver ([3]; 2 min): 15.32 ± 4.43 % dose/g organ | Body distribution, Pancreas ([3]; 2 min): 4.54 ± 1.03 % dose/g organ | Body distribution, Stomach ([3]; 2 min): 1.87 ± 0.68 % dose/g organ | Body distribution, Blood ([3]; 5 min): 7.16 ± 0.13 % dose/g organ | Body distribution, Brain ([3]; 5 min): 0.55 ± 0.11 % dose/g organ | Body distribution, Heart ([3]; 5 min): 4.45 ± 0.52 % dose/g organ | Body distribution, Intestine ([3]; 5 min): 4.58 ± 0.60 % dose/g organ | Body distribution, Kidney ([3]; 5 min): 11.39 ± 3.08 % dose/g organ | Body distribution, Liver ([3]; 5 min): 12.85 ± 1.71 % dose/g organ | Body distribution, Pancreas ([3]; 5 min): 4.40 ± 0.28 % dose/g organ | Body distribution, Stomach ([3]; 5 min): 0.59 ± 0.23 % dose/g organ | Body distribution, Blood ([3]; 15 min): 6.64 ± 0.31 % dose/g organ | Body distribution, Brain ([3]; 15 min): 0.47 ± 0.06 % dose/g organ | Body distribution, Heart ([3]; 15 min): 3.35 ± 0.27 % dose/g organ | Body distribution, Intestine ([3]; 15 min): 5.89 ± 0.47 % dose/g organ | Body distribution, Kidney ([3]; 15 min): 7.00 ± 0.49 % dose/g organ | Body distribution, Liver ([3]; 15 min): 7.66 ± 0.86 % dose/g organ | Body distribution, Pancreas ([3]; 15 min): 3.16 ± 0.30 % dose/g organ | Body distribution, Stomach ([3]; 15 min): 1.88 ± 0.52 % dose/g organ | Body distribution, Blood ([3]; 30 min): 4.16 ± 2.42 % dose/g organ | Body distribution, Brain ([3]; 30 min): 0.43 ± 0.02 % dose/g organ | Body distribution, Heart ([3]; 30 min): 2.69 ± 0.20 % dose/g organ | Body distribution, Intestine ([3]; 30 min): 6.26 ± 0.96 % dose/g organ | Body distribution, Kidney ([3]; 30 min): 6.37 ± 3.04 % dose/g organ | Body distribution, Liver ([3]; 30 min): 5.82 ± 0.64 % dose/g organ | Body distribution, Pancreas ([3]; 30 min): 2.59 ± 0.13 % dose/g organ | Body distribution, Stomach ([3]; 30 min): 1.86 ± 0.13 % dose/g organ | Body distribution, Blood ([3]; 60 min): 3.67 ± 0.40 % dose/g organ | Body distribution, Brain ([3]; 60 min): 0.33 ± 0.05 % dose/g organ | Body distribution, Heart ([3]; 60 min): 1.87 ± 0.37 % dose/g organ | Body distribution, Intestine ([3]; 60 min): 6.88 ± 0.53 % dose/g organ | Body distribution, Kidney ([3]; 60 min): 3.81 ± 0.75 % dose/g organ | Body distribution, Liver ([3]; 60 min): 4.94 ± 0.90 % dose/g organ | Body distribution, Pancreas ([3]; 60 min): 2.10 ± 0.34 % dose/g organ | Body distribution, Stomach ([3]; 60 min): 1.74 ± 0.83 % dose/g organ | Body distribution, Blood ([3]; 180 min): 0.91 ± 0.55 % dose/g organ | Body distribution, Brain ([3]; 180 min): 0.19 ± 0.08 % dose/g organ | Body distribution, Heart ([3]; 180 min): 0.75 ± 0.34 % dose/g organ | Body distribution, Intestine ([3]; 180 min): 4.60 ± 2.84 % dose/g organ | Body distribution, Kidney ([3]; 180 min): 1.08 ± 0.67 % dose/g organ | Body distribution, Liver ([3]; 180 min): 2.25 ± 1.44 % dose/g organ | Body distribution, Pancreas ([3]; 180 min): 0.76 ± 0.35 % dose/g organ | Body distribution, Stomach ([3]; 180 min): 1.27 ± 0.80 % dose/g organ

O=C(N[C@H]1C(O)O[C@H](CO)[C@@H](O)[C@@H]1O)c1cccc(I)c1 (stereo partly drawn) [BGA, N-m-iodobenzoyl-D-glucosamine]
Passage through the blood-brain barrier ([4]; in vivo): can hardly pass through the blood-brain barrier (BBB) in vivo | Disappearance of radioactivity from brain ([4]; mouse): parallel to the blood clearance | Stomach accumulation as index of deiodization / stability in body ([4]; mouse): low in stomach accumulation as the index of deiodization and thus stable in a body | Inhibition to the ATP action (hexokinase): antagonistic inhibition to the ATP action | Inhibition to the phosphorylation of glucose (hexokinase): non-antagonistic inhibition to the phosphorylation of glucose | Phosphorylation with hexokinase (hexokinase): not phosphorylated with hexokinase

CC(=O)OC[C@H]1OC(OC(C)=O)[C@H](NC(=O)c2cccc(I)c2)[C@@H](OC(C)=O)[C@@H]1OC(C)=O (stereo partly drawn) [ABGA, N-(m-iodobenzoyl)-1,3,4,6-tetra-O-acetyl-D-glucosamine]
TLC peak of ABGA over time (brain; mouse brain, 5 to 180 minutes): decreases with the lapse of time | TLC peaks in brain (brain; mouse brain, 5 minutes after i.v. administration): the peaks of ABGA and BGA appear in brain 5 minutes after the administration | Transfer to brain and deesterification (brain; mouse, i.v.): transferred to brain at the initial stage of administration and thereafter deesterified, whereby it behaves as BGA | Brain/blood ratio with lapse of time [3]: increase of the brain/blood ratio with the lapse of time | Clearance from the blood [3]: rapid clearance from the blood | Retention in the brain [3]: retention in the brain | Uptake in the brain in comparison with BGA [3]: higher uptake in the brain
